Laboratory results as given in patent publication US8633183B2 (priority 2010, dated 2014).

What follows are compounds tested against PI3Kalpha (Homo sapiens (Human), UniProt P42336). Details: read-out: IC50 PI3K.
PI3Kalpha, sequence (P42336 whole entry, looked up): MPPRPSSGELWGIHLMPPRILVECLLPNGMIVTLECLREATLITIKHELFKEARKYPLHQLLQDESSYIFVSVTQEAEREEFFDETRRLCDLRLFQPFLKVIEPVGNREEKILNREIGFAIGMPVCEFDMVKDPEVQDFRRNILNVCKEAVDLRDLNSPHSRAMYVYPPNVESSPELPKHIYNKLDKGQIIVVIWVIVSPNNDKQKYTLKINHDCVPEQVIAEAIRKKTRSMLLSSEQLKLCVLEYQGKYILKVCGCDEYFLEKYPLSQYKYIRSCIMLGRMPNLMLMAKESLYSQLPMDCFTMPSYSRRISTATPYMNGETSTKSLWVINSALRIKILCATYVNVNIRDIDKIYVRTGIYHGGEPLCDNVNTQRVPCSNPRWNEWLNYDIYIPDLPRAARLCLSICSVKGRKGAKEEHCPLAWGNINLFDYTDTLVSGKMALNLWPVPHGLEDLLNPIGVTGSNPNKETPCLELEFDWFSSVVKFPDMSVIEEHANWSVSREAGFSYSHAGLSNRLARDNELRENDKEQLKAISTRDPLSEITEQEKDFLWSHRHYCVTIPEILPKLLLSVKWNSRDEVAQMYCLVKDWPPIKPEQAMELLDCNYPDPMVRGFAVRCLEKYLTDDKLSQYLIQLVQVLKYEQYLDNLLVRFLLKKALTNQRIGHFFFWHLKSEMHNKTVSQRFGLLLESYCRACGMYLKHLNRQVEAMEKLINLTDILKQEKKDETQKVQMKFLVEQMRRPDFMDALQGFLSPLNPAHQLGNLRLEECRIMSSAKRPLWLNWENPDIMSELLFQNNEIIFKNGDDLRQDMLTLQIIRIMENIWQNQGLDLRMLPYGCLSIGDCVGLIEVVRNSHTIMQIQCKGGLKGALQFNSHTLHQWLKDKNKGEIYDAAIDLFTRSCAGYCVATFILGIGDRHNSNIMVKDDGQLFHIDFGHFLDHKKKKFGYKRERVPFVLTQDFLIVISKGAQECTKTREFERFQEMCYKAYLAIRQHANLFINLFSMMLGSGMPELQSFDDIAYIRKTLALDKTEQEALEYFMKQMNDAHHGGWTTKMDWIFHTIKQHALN

SMILES	IC50
CCc1ncnc(-c2cc(F)c(C(=O)N3CCN(Cc4nc(C)c(C)o4)CC3)c(F)c2)c1C#Cc1ccc(N)nc1 [Example E-300]	783 nM
CCc1ncnc(-c2cc(F)c(C(=O)N3CCN(C4CCCC4O)CC3)c(F)c2)c1C#Cc1ccc(N)nc1 (stereo not shown) [Example E-301]	106 nM
CCc1ncnc(-c2cc(F)c(C(=O)N3CCN(CCOCCO)CC3)c(F)c2)c1C#Cc1ccc(N)nc1 [Example E-302]	113 nM
CCc1ncnc(-c2cc(F)c(C(=O)N3CCN(Cc4cc(C)no4)CC3)c(Cl)c2)c1C#Cc1ccc(N)nc1 [Example E-304]	108 nM
CCc1ncnc(-c2cc(F)c(C(=O)N3CCN(C(C)COC)CC3)c(Cl)c2)c1C#Cc1ccc(N)nc1 (stereo not shown) [Example E-305]	110 nM
CCc1ncnc(-c2cc(F)c(C(=O)N3CCN(C(C)CO)CC3)c(Cl)c2)c1C#Cc1ccc(N)nc1 (stereo not shown) [Example E-306]	108 nM
CCc1ncnc(-c2cc(F)c(C(=O)N3CCN(Cc4nc(C)c(C)o4)CC3)c(Cl)c2)c1C#Cc1ccc(N)nc1 [Example E-307]	193 nM
CCc1ncnc(-c2cc(F)c(C(=O)N3CCN(C4CCCC4O)CC3)c(Cl)c2)c1C#Cc1ccc(N)nc1 (stereo not shown) [Example E-308]	63.4 nM
CCc1ncnc(-c2cc(F)c(C(=O)N3CCN(CC(C)O)CC3)c(Cl)c2)c1C#Cc1ccc(N)nc1 (stereo not shown) [Example E-309]	239 nM
CCc1ncnc(-c2cc(F)c(C(=O)N3CCN(CCOCCO)CC3)c(Cl)c2)c1C#Cc1ccc(N)nc1 [Example E-310]	86 nM
CCc1ncnc(-c2cc(F)c(C(=O)N3CCC4(CC3)CC(=O)CO4)c(Cl)c2)c1C#Cc1ccc(N)nc1 [Example E-311]	69.1 nM
CCc1ncnc(-c2ccc(C(=O)N3CCN(Cc4cc(C)no4)CC3)c(Cl)c2)c1C#Cc1ccc(N)nc1 [Example E-312]	110 nM
CCc1ncnc(-c2ccc(C(=O)N3CCN(C(C)COC)CC3)c(Cl)c2)c1C#Cc1ccc(N)nc1 (stereo not shown) [Example E-313]	122 nM
CCc1ncnc(-c2ccc(C(=O)N3CCN(Cc4nc(C)c(C)o4)CC3)c(Cl)c2)c1C#Cc1ccc(N)nc1 [Example E-315]	127 nM
CCc1ncnc(-c2ccc(C(=O)N3CCN(C4CCCC4O)CC3)c(Cl)c2)c1C#Cc1ccc(N)nc1 (stereo not shown) [Example E-316]	57.1 nM
CCc1ncnc(-c2ccc(C(=O)N3CCN(CC(C)O)CC3)c(Cl)c2)c1C#Cc1ccc(N)nc1 (stereo not shown) [Example E-317]	92.8 nM
CCc1ncnc(-c2ccc(C(=O)N3CCN(CCOCCO)CC3)c(Cl)c2)c1C#Cc1ccc(N)nc1 [Example E-318]	107 nM
CCc1ncnc(-c2ccc(C(=O)N3CCC4(CC3)CC(NC(=O)OC(C)(C)C)C4)c(F)c2)c1C#Cc1ccc(N)nc1 [Example E-319]	360 nM
CCc1ncnc(-c2ccc(C(=O)N3CCC4(CC3)CC(N)C4)c(F)c2)c1C#Cc1ccc(N)nc1 [Example E-320]	1300 nM
CCc1ncnc(-c2ccc(C(=O)N3CCC4(CC3)CN(C(=O)OC(C)(C)C)CCO4)c(F)c2)c1C#Cc1ccc(N)nc1 [Example E-321]	412 nM
CCc1ncnc(-c2ccc(C(=O)N3CCC4(CC3)CNCCO4)c(F)c2)c1C#Cc1ccc(N)nc1 [Example E-322]	391 nM
CCc1ncnc(-c2ccc(C(=O)N3CCC4(CN(C(=O)OC(C)(C)C)C4)C3)c(F)c2)c1C#Cc1ccc(N)nc1 [Example E-323]	842 nM
CCc1ncnc(-c2ccc(C(=O)N3CCC4(CNC4)C3)c(F)c2)c1C#Cc1ccc(N)nc1 [Example E-324]	935 nM

SMILES	IC50
CCc1ncnc(-c2ccc(C(=O)N3CCOC4(CCN(C(=O)OC(C)(C)C)CC4)C3)c(F)c2)c1C#Cc1ccc(N)nc1 [Example E-325]	1180 nM
CCc1ncnc(-c2ccc(C(=O)N3CCOC4(CCNCC4)C3)c(F)c2)c1C#Cc1ccc(N)nc1 [Example E-326]	367 nM
CCc1ncnc(-c2ccc(C(=O)N3CCC4(CCN(C(=O)OC(C)(C)C)CC4)C3)c(F)c2)c1C#Cc1ccc(N)nc1 [Example E-327]	1360 nM
CCc1ncnc(-c2ccc(C(=O)N3CCC4(CCNCC4)C3)c(F)c2)c1C#Cc1ccc(N)nc1 [Example E-328]	586 nM
CCc1ncnc(-c2ccc(C(=O)N3C[C@H]4CN(C(=O)OC(C)(C)C)C[C@H]4C3)c(F)c2)c1C#Cc1ccc(N)nc1 [Example E-329]	238 nM
CCc1ncnc(-c2ccc(C(=O)N3C[C@H]4CNC[C@H]4C3)c(F)c2)c1C#Cc1ccc(N)nc1 [Example E-330]	601 nM
CCc1ncnc(-c2ccc(C(=O)N3C[C@@H]4CCN(C(=O)OC(C)(C)C)[C@@H]4C3)c(F)c2)c1C#Cc1ccc(N)nc1 [Example E-331]	151 nM
CCc1ncnc(-c2ccc(C(=O)N3C[C@@H]4CCN[C@@H]4C3)c(F)c2)c1C#Cc1ccc(N)nc1 [Example E-332]	655 nM
CCc1ncnc(-c2cc(Cl)c(C(=O)N3CC4(CN(C)C4)C3)c(Cl)c2)c1C#Cc1ccc(N)nc1 [Example E-333]	599 nM
CCc1ncnc(-c2ccc(C(=O)N3CC4(CN(C)C4)C3)c(Cl)c2)c1C#Cc1ccc(N)nc1 [Example E-334]	966 nM
CCc1ncnc(-c2cc(Cl)c(C(=O)N3CCC4(CC3)CN(C)C4)c(Cl)c2)c1C#Cc1ccc(N)nc1 [Example E-335]	2210 nM
CCc1ncnc(-c2cc(F)c(C(=O)N3CCC4(CC3)CN(C)C4)c(F)c2)c1C#Cc1ccc(N)nc1 [Example E-336]	773 nM
CCc1ncnc(-c2cc(F)c(C(=O)N3CCC4(CC3)CN(C)C4)c(Cl)c2)c1C#Cc1ccc(N)nc1 [Example E-337]	862 nM
CCc1ncnc(-c2ccc(C(=O)N3CCC4(CC3)CN(C)C4)c(Cl)c2)c1C#Cc1ccc(N)nc1 [Example E-338]	634 nM
CCc1ncnc(-c2ccc(C(=O)N3CCC4(CC3)CN(C)C4)c(F)c2)c1C#Cc1ccc(N)nc1 [Example E-339]	331 nM
CCc1ncnc(-c2cc(F)c(C(=O)N3CCN(C)C[C@H]3C)c(F)c2)c1C#Cc1ccc(N)nc1 [Example E-340]	364 nM
CCc1ncnc(-c2cc(F)c(C(=O)N3CCN(C)C[C@@H]3C)c(Cl)c2)c1C#Cc1ccc(N)nc1 [Example E-341]	282 nM
CCc1ncnc(-c2ccc(C(=O)N3CCN(Cc4ncon4)CC3)c(Cl)c2)c1C#Cc1ccc(N)nc1 [Example E-342]	137 nM
CCc1ncnc(-c2ccc(C(=O)N3CCN(CCOCCO)CC3)c(F)c2)c1C#Cc1ccc(N)nc1 [Example E-345]	109 nM
CCc1ncnc(-c2ccc(C(=O)N3CCN(Cc4ncon4)CC3)c(F)c2)c1C#Cc1ccc(N)nc1 [Example E-346]	167 nM
CCc1ncnc(-c2ccc(C(=O)N3CCN(C)C[C@H]3C)c(F)c2)c1C#Cc1ccc(N)nc1 [Example E-347]	205 nM
CCc1ncnc(-c2ccc(C(=O)N3CCN(C)C[C@@H]3C)c(F)c2)c1C#Cc1ccc(N)nc1 [Example E-348]	144 nM
CCc1ncnc(-c2ccc(C(=O)N3CCN(CC(C)(C)O)CC3)c(F)c2)c1C#Cc1ccc(N)nc1 [Example E-349]	175 nM
